Experimental data taken from patent US20260231948A1, “AN HERBICIDAL COMBINATION, COMPOSITION AND METHOD OF CONTROLLING WEEDS USING THE SAME” (priority 2023, published 2026).

What was measured:
[1] = system: Viola arvensis, Bromus spp., Lolium spp., Agropyron repens and Urtica urens; conditions: Hoechst et al., 1991; cited from earlier work
Brachiaria decumbens = assay: Greenhouse post-emergence herbicidal activity on Brachiaria decumbens; type: in vivo
Protocol: The expected efficacy of a combination of L-glufosinate ammonium and the other herbicides was calculated using the well-established Colby method. Any difference between the observed and “expected” efficacy could be attributed to synergy between the two compounds.
In the Colby method, the expected (or predicted) response of a combination of herbicides is calculated by taking the product of the observed response for each individual component of the combination when applied alone, divided by 100, and subtracting this value from the sum of the observed response for each component when applied alone. An unexpected enhancement in efficacy of the combination is then determined by comparing the observed response of the combination to the expected (or predicted) response as calculated from the observed response of each individual component alone. If the observed response of the combination is greater than the expected (or predicted) response, or stated conversely, if the difference between the observed and expected response is greater than zero, then the combination is said to be synergistic or unexpectedly effective (Colby, S. R., Weeds, 1967(15), p. 20-22). […]
The percentage efficacy was calculated at 7, 14, 21 and 28 days after application (DAA). The target weed was Brachiaria decumbens, and the concentration of the herbicide and the results are recorded Table 1.

| SMILES | Control of weed species by glufosinate [1] | Observed efficacy (%) of isoxaflutole (60 g a.i./ha) (Brachiaria decumbens; 7 DAA) [%] | Observed efficacy (%) of isoxaflutole (60 g a.i./ha) (Brachiaria decumbens; 14 DAA) [%] |
| --- | --- | --- | --- |
| CP(=O)(O)CCC(N)C(=O)O (racemic) [glufosinate, DL-homoalanin-4-yl(methyl)phosphinic acid] | either not combated, or only weakly combated | – | – |
| CS(=O)(=O)c1cc(C(F)(F)F)ccc1C(=O)c1cnoc1C1CC1 [isoxaflutole] | – | 45 | 70 |
